Results published in patent US9636418B2 (priority 2013, dated 2017).
Several values for one entry are separate records, joined by “and”; a condition that tells them apart may be missing. Equal values may be shown once. Read-outs that look alike come from different tables or passages of the source.

How the values were obtained:
Assay in all cases: cell-based
hNav1.7 [1] = target: T1, hNav1.7 (Homo sapiens, UniProt Q15858); conditions: IonWorks Quattro; read-out: IC50 Nav1.7
hNav1.4 [2] = target: T2, hNav1.4 (Homo sapiens, UniProt P35499); conditions: for IC50: IonWorks Quattro, read-out: IC50 Nav1.4; for Nav1.4/Nav1.7: ratio of IonWorks Quattro IC50 values
hNav1.3 = hNav1.3 (Homo sapiens, UniProt Q9NY46); conditions: IonWorks Quattro; read-out: IC50 Nav1.3
hNav1.5 [3] = target: T3, hNav1.5 (Homo sapiens, UniProt Q14524); conditions: IonWorks Quattro; read-out: IC50 Nav1.5
hNav1.4 [4] = target: T2, hNav1.4; conditions: for IC50: PatchXpress, tonic block, read-out: PX hNav1.4 Tonic IC50; for Nav1.4/Nav1.7: ratio of PX tonic IC50 values
hNav1.5 [5] = target: T3, hNav1.5; conditions: for IC50: PatchXpress, tonic block, read-out: PX hNav1.5 Tonic IC50; for Nav1.5/Nav1.7: ratio of PX tonic IC50 values
hNav1.7 [6] = target: T1, hNav1.7; format: cell-based; conditions: PatchXpress, tonic block; read-out: PX hNav1.7 Tonic IC50

T1 sequence (Q15858 whole entry): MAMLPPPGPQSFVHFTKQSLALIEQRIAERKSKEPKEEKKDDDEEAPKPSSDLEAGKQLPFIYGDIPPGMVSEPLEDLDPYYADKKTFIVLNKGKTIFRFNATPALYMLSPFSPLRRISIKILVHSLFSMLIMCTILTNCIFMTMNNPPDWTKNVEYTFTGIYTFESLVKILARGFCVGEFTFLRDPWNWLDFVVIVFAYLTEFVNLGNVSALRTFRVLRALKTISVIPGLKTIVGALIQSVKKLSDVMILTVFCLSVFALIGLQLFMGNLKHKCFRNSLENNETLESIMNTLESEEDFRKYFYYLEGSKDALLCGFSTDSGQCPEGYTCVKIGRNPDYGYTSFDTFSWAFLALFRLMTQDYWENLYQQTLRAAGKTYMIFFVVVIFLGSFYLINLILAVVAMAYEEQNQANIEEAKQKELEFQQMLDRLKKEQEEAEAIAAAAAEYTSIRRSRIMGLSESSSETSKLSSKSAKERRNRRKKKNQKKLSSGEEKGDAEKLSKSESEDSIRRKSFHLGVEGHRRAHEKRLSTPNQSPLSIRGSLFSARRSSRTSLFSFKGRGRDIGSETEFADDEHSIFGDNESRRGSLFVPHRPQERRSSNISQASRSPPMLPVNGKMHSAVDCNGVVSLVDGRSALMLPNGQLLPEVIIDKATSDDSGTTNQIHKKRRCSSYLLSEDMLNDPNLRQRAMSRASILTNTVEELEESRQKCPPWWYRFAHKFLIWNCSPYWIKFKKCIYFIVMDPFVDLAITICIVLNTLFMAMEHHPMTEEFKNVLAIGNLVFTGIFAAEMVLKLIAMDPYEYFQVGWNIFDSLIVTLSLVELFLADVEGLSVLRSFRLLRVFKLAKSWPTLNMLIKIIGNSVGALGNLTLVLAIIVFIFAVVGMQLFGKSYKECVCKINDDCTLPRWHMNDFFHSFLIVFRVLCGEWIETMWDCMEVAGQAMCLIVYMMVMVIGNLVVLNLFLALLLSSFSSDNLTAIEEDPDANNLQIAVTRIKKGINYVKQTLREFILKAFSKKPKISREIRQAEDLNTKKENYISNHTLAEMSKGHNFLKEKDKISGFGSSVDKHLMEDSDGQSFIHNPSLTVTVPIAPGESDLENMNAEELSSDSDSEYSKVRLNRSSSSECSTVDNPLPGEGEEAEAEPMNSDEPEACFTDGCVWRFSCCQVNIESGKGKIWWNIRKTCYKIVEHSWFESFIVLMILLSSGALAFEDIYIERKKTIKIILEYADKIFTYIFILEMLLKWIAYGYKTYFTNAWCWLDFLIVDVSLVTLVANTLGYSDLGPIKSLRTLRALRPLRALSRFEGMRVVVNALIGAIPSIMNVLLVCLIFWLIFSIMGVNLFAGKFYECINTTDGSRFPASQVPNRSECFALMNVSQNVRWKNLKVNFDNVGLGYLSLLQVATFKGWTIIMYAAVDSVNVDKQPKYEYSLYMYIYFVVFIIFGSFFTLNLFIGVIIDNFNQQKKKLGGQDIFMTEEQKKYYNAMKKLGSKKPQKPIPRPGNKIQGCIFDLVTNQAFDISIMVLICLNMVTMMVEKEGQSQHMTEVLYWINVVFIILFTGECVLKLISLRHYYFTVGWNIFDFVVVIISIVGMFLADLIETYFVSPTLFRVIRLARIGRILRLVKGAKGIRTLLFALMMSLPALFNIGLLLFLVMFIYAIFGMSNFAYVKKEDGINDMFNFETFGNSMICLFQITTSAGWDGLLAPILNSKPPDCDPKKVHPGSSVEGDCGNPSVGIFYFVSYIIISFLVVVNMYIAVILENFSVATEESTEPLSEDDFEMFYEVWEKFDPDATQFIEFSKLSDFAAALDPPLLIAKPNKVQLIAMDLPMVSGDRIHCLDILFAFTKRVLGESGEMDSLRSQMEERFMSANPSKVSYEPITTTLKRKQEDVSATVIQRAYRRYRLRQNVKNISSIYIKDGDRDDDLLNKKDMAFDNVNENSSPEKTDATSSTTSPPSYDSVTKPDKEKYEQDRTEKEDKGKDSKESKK
T3 sequence (Q14524 whole entry): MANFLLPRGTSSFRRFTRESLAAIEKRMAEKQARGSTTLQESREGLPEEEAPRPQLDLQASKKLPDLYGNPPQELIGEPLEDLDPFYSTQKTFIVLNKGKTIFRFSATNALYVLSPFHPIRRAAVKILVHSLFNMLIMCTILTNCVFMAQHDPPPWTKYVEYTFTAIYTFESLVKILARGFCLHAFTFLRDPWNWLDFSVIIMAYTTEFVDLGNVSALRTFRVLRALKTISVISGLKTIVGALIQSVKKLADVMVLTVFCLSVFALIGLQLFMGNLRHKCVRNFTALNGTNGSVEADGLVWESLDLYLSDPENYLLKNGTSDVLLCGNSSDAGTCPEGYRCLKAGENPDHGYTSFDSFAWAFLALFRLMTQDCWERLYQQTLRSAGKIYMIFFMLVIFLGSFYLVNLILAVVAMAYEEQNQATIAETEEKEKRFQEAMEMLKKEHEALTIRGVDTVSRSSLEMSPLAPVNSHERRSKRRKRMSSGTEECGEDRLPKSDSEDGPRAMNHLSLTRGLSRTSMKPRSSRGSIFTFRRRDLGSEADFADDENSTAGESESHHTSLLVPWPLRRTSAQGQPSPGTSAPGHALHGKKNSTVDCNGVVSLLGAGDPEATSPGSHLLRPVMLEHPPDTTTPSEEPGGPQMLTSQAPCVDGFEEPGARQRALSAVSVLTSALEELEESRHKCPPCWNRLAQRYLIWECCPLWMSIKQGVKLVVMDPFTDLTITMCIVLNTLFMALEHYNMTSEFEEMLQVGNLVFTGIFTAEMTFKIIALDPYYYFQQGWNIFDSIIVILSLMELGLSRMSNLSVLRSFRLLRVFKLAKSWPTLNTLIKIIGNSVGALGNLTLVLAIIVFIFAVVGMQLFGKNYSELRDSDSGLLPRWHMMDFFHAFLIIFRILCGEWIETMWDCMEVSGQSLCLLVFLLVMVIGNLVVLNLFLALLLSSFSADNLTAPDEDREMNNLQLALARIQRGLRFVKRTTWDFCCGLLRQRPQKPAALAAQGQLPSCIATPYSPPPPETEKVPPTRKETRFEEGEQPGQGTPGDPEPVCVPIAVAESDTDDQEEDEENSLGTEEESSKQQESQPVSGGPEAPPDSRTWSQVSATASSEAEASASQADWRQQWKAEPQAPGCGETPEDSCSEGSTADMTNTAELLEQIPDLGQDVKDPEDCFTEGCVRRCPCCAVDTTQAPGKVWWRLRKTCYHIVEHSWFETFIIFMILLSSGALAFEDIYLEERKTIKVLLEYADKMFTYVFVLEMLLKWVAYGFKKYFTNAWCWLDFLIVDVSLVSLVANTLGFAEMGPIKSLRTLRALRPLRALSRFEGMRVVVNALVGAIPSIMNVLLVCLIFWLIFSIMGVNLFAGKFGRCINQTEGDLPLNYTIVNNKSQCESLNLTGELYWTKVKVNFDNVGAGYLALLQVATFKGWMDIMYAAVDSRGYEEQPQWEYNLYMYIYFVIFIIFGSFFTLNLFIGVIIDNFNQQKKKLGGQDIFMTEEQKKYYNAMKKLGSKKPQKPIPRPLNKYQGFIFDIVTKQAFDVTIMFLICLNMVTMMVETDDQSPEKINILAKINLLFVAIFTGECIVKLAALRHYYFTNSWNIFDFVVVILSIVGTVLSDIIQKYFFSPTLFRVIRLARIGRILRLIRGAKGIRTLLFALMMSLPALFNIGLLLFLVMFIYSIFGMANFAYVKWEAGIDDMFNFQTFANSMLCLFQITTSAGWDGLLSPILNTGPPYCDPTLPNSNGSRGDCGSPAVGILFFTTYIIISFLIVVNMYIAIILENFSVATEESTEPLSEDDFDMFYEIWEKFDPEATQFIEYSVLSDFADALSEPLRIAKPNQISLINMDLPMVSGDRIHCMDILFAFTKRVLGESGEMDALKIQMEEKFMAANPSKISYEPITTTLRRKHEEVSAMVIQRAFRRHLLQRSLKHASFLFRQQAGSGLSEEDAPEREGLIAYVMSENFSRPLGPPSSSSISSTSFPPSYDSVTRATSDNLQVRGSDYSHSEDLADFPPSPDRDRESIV

Structure (SMILES)	IC50 (hNav1.7 [1])	IC50 (hNav1.4 [2]) [nM]	Nav1.4/Nav1.7 (hNav1.4 [2])	IC50 (hNav1.3) [nM]	IC50 (hNav1.5 [3]) [nM]	IC50 (hNav1.4 [4]) [nM]	Nav1.4/Nav1.7 (hNav1.4 [4])	IC50 (hNav1.5 [5]) [nM]	Nav1.5/Nav1.7 (hNav1.5 [5])	IC50 (hNav1.7 [6]) [nM]
CCC[C@@H]1NC(=O)[C@H](Cc2c[nH]c3ccccc23)NC(=O)[C@H](CCCCN)NC(=O)[C@H](CCC(N)=O)NC(=O)[C@@H](NC(=O)[C@@H](N)Cc2ccc(O)cc2)CSSC[C@@H]2NC(=O)[C@@H]3CSSC[C@@H](C(=O)N[C@@H](CCCNC(=N)N)C(=O)N[C@@H](CCCCN)C(=O)N[C@H](C(=O)N[C@H](C(N)=O)[C@@H](C)CC)[C@@H](C)CC)NC(=O)[C@H](Cc4c[nH]c5ccccc45)NC(=O)[C@H](CC(C)C)NC(=O)[C@H](CCCCN)NC(=O)[C@H](CSSC[C@H](NC(=O)[C@H]([C@@H](C)O)NC(=O)[C@H](Cc4c[nH]c5ccccc45)NC1=O)C(=O)N[C@@H](CC(=O)O)C(=O)N[C@@H](CO)C(=O)N[C@@H](CCCCN)C(=O)N[C@@H](CCCNC(=N)N)C(=O)N[C@@H](C)C(=O)N3)NC(=O)[C@H](CCC(=O)O)NC(=O)[C@H](CC(C)C)NC(=O)CNC(=O)[C@H](CCC(=O)O)NC2=O [compound 111]	690 nM	> 5000	7	> 5000	9200					
CC[C@H](C)[C@H](NC(=O)[C@H](CCCCN)NC(=O)[C@H](CCCNC(=N)N)NC(=O)[C@@H]1CSSC[C@@H]2NC(=O)[C@H](C)NC(=O)[C@H](CCCNC(=N)N)NC(=O)[C@H](CCCCN)NC(=O)[C@H](CO)NC(=O)[C@H](CC(=O)O)NC(=O)[C@@H]3CSSC[C@H](NC(=O)[C@H](CCC(=O)O)NC(=O)[C@H](CC(C)C)NC(=O)CNC(=O)[C@H](CCC(=O)O)NC(=O)[C@H](CSSC[C@H](NC(=O)[C@@H](N)Cc4ccc(O)cc4)C(=O)N[C@@H](CCC(N)=O)C(=O)N[C@@H](CCCCN)C(=O)N[C@@H](Cc4c[nH]c5ccccc45)C(=O)N[C@@H](CCSC)C(=O)N[C@@H](Cc4c[nH]c5ccccc45)C(=O)N[C@@H]([C@@H](C)O)C(=O)N3)NC2=O)C(=O)N[C@@H](CCCCN)C(=O)N[C@@H](CC(C)C)C(=O)N[C@@H](Cc2c[nH]c3ccccc23)C(=O)N1)C(=O)N[C@H](C(=O)N[C@@H](Cc1c[nH]c2ccccc12)C(N)=O)[C@@H](C)CC [compound 113]	170 nM	> 5000	30	> 5000	11100					
CC[C@H](C)[C@H](NC(=O)[C@@H](NC(=O)[C@H](CCCCN)NC(=O)[C@H](CCCNC(=N)N)NC(=O)[C@@H]1CSSC[C@@H]2NC(=O)[C@H](C)NC(=O)[C@H](CCCNC(=N)N)NC(=O)[C@H](CCCCN)NC(=O)[C@H](CO)NC(=O)[C@H](CC(=O)O)NC(=O)[C@@H]3CSSC[C@H](NC(=O)[C@H](Cc4ccc(C(=O)O)cc4)NC(=O)[C@H](CC(C)C)NC(=O)CNC(=O)[C@H](CCC(=O)O)NC(=O)[C@H](CSSC[C@H](NC(=O)[C@@H](N)Cc4ccc(O)cc4)C(=O)N[C@@H](CCC(N)=O)C(=O)N[C@@H](CCCCN)C(=O)N[C@@H](Cc4c[nH]c5ccccc45)C(=O)N[C@@H](CCSC)C(=O)N[C@@H](Cc4c[nH]c5ccccc45)C(=O)N[C@@H]([C@@H](C)O)C(=O)N3)NC2=O)C(=O)N[C@@H](CCCCN)C(=O)N[C@@H](CC(C)C)C(=O)N[C@@H](Cc2c[nH]c3ccccc23)C(=O)N1)[C@@H](C)CC)C(N)=O [compound 114]	210 nM	> 5000	24	> 5000	14200					
CC[C@H](C)[C@H](NC(=O)[C@@H](NC(=O)[C@H](CCCCN)NC(=O)[C@H](CCCNC(=N)N)NC(=O)[C@@H]1CSSC[C@@H]2NC(=O)[C@H](C)NC(=O)[C@H](CCCNC(=N)N)NC(=O)[C@H](CCCCN)NC(=O)[C@H](CO)NC(=O)[C@H](CC(=O)O)NC(=O)[C@@H]3CSSC[C@H](NC(=O)[C@H]([C@@H](C)CC)NC(=O)[C@H](CC(C)C)NC(=O)CNC(=O)[C@H](CCC(=O)O)NC(=O)[C@H](CSSC[C@H](NC(=O)[C@@H](N)Cc4ccc(O)cc4)C(=O)N[C@@H](CCC(N)=O)C(=O)N[C@@H](CCCCN)C(=O)N[C@@H](Cc4c[nH]c5ccccc45)C(=O)N[C@@H](CCSC)C(=O)N[C@@H](Cc4c[nH]c5ccccc45)C(=O)N[C@@H]([C@@H](C)O)C(=O)N3)NC2=O)C(=O)N[C@@H](CCCCN)C(=O)N[C@@H](CC(C)C)C(=O)N[C@@H](Cc2c[nH]c3ccccc23)C(=O)N1)[C@@H](C)CC)C(N)=O [compound 118]	90 nM	1300	15	2200	8600					
CC[C@H](C)[C@H](NC(=O)CNC(=O)[C@H](CCCCN)NC(=O)[C@H](CCCNC(=N)N)NC(=O)[C@@H]1CSSC[C@@H]2NC(=O)[C@H](C)NC(=O)[C@H](CCCNC(=N)N)NC(=O)[C@H](CCCCN)NC(=O)[C@H](CO)NC(=O)[C@H](CC(=O)O)NC(=O)[C@@H]3CSSC[C@H](NC(=O)[C@H](CCC(=O)O)NC(=O)[C@H](CC(C)C)NC(=O)CNC(=O)[C@H](CCC(=O)O)NC(=O)[C@H](CSSC[C@H](NC(=O)[C@@H](N)Cc4ccc(O)cc4)C(=O)N[C@@H](CCC(N)=O)C(=O)N[C@@H](CCCCN)C(=O)N[C@@H](Cc4c[nH]c5ccccc45)C(=O)N[C@@H](CCSC)C(=O)N[C@@H](Cc4c[nH]c5ccccc45)C(=O)N[C@@H]([C@@H](C)O)C(=O)N3)NC2=O)C(=O)N[C@@H](CCCCN)C(=O)N[C@@H](CC(C)C)C(=O)N[C@@H](Cc2c[nH]c3ccccc23)C(=O)N1)C(N)=O [compound 134]	300 nM and 370 nM	> 5000	17 and 13	> 5000						
C#CC[C@H](N)C(=O)NCCOCCOCCOCCOCCC(=O)NCCCC[C@@H]1NC(=O)[C@H](CCCNC(=N)N)NC(=O)[C@H](CCCCN)NC(=O)[C@H](CO)NC(=O)[C@H](CC(=O)O)NC(=O)[C@@H]2CSSC[C@@H]3NC(=O)[C@H](CCC(=O)O)NC(=O)[C@H](CC(C)C)NC(=O)CNC(=O)[C@H](CCC(=O)O)NC(=O)[C@H](CSSC[C@H](NC(=O)[C@@H](N)Cc4ccc(O)cc4)C(=O)N[C@@H](CCC(N)=O)C(=O)N[C@@H](CCCCN)C(=O)N[C@@H](Cc4c[nH]c5ccccc45)C(=O)N[C@@H](CCCC)C(=O)N[C@@H](Cc4c[nH]c5ccccc45)C(=O)N[C@@H]([C@@H](C)O)C(=O)N2)NC(=O)[C@H](CSSC[C@@H](C(=O)N[C@@H](CCCNC(=N)N)C(=O)N[C@@H](CCCCN)C(=O)N[C@H](C(=O)N[C@@H](Cc2c[nH]c4ccccc24)C(N)=O)[C@@H](C)CC)NC(=O)[C@H](Cc2c[nH]c4ccccc24)NC(=O)[C@H](CC(C)C)NC(=O)[C@H](CCCCN)NC3=O)NC1=O [compound 291]	28 nM					1130	38	3010	100	30
C#CC[C@H](N)C(=O)NCCOCCOCCOCCOCCOCCOCCOCCOCCOCCOCCOCCOCCC(=O)NCCCC[C@@H]1NC(=O)[C@@H]2CSSC[C@H](NC(=O)[C@@H](N)Cc3ccc(O)cc3)C(=O)N[C@@H](CCC(N)=O)C(=O)N[C@@H](CCCCN)C(=O)N[C@@H](Cc3c[nH]c4ccccc34)C(=O)N[C@@H](CCCC)C(=O)N[C@@H](Cc3c[nH]c4ccccc34)C(=O)N[C@@H]([C@@H](C)O)C(=O)N[C@H]3CSSC[C@H](NC(=O)[C@H](CCC(=O)O)NC(=O)[C@H](CC(C)C)NC(=O)CNC1=O)C(=O)N[C@@H](CCCCN)C(=O)N[C@@H](CC(C)C)C(=O)N[C@@H](Cc1c[nH]c4ccccc14)C(=O)N[C@H](C(=O)N[C@@H](CCCNC(=N)N)C(=O)N[C@@H](CCCCN)C(=O)N[C@H](C(=O)N[C@@H](Cc1c[nH]c4ccccc14)C(N)=O)[C@@H](C)CC)CSSC[C@H](NC(=O)[C@H](C)NC(=O)[C@H](CCCNC(=N)N)NC(=O)[C@H](CCCCN)NC(=O)[C@H](CO)NC(=O)[C@H](CC(=O)O)NC3=O)C(=O)N2 [compound 292]	82 nM					1630	2	3120	3	900
C#CC[C@H](N)C(=O)NCCOCCOCCOCCOCCC(=O)NCCCC[C@@H]1NC(=O)[C@@H]2CSSC[C@H](NC(=O)[C@@H](N)Cc3ccc(O)cc3)C(=O)N[C@@H](CCC(N)=O)C(=O)N[C@@H](CCCCN)C(=O)N[C@@H](Cc3c[nH]c4ccccc34)C(=O)N[C@@H](CCCC)C(=O)N[C@@H](Cc3c[nH]c4ccccc34)C(=O)N[C@@H]([C@@H](C)O)C(=O)N[C@H]3CSSC[C@H](NC(=O)[C@H](CCC(=O)O)NC(=O)[C@H](CC(C)C)NC(=O)CNC1=O)C(=O)N[C@@H](CCCCN)C(=O)N[C@@H](CC(C)C)C(=O)N[C@@H](Cc1c[nH]c4ccccc14)C(=O)N[C@H](C(=O)N[C@@H](CCCNC(=N)N)C(=O)N[C@@H](CCCCN)C(=O)N[C@H](C(=O)N[C@@H](Cc1c[nH]c4ccccc14)C(N)=O)[C@@H](C)CC)CSSC[C@H](NC(=O)[C@H](C)NC(=O)[C@H](CCCNC(=N)N)NC(=O)[C@H](CCCCN)NC(=O)[C@H](CO)NC(=O)[C@H](CC(=O)O)NC3=O)C(=O)N2 [compound 293]	41 nM					453	1	580	1	570
